This note sets out measurements from patent US12102705B2, “Peptides having inhibitory activity on muscarinic receptor M3” (AZIENDE CHIMICHE RIUNITE ANGELINI FRANCESCO—A.C.R.A.F. …, priority 2018, dated 2024).

Peptide text beside a SMILES is read from it. * marks the point of attachment. Palmitoyl = CCCCCCCCCCCCCCCC(=O)*; Myristoyl = CCCCCCCCCCCCCC(=O)*

Common to all, as to format: cell-based
The target of assay [1] is T1, human muscarinic receptor M3 (Homo sapiens, UniProt P20309).
T1 construct: expressed in transfected cells; cultured in Ham's F-12 medium
T1 sequence (P20309 whole entry): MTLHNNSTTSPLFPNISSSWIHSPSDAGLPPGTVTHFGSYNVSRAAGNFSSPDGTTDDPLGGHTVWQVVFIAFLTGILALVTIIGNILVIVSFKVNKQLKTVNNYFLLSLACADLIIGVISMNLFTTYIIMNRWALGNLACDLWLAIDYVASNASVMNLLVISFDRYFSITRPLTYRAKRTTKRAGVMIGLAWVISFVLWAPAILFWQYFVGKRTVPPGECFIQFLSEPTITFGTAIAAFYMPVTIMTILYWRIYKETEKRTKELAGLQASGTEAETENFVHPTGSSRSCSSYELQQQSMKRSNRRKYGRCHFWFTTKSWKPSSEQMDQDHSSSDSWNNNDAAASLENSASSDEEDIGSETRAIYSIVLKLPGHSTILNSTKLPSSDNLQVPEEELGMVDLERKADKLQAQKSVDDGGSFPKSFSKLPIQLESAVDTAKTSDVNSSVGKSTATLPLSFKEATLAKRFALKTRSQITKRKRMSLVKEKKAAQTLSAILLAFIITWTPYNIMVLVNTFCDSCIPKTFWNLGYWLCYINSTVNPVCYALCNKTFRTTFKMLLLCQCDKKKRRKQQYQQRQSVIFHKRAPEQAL
Put plainly: Inhibition of M3-acetylcholine activation, Fluo-4 NW calcium fluorescence. The note with it: 50 min incubation, 10 nM acetylcholine; for inhibition at 10 µM / inhibition at 50 µM / inhibition at 100 µM: 50 min. As to the method:
(§1) Epithelial stable cell line constitutively expressing human muscarinic receptor M3 was used to assess peptides activity. Cells were seeded in 96-well plates at 50% cell confluence in 100 μL of complete Ham's F-12 medium. After 24 hours, medium was removed and cells were incubated with 90 μL/well of a solution of the peptides of the invention at 100, 50 or 10 μM or DMSO as vehicle. Peptides were dissolved in Fluo-4 NW (Invitrogen) fluorescent calcium probe assay buffer containing Probenecid, following manufacturer's instructions for 50 min at 37° C. in a CO2 incubator. Afterwards, M3 activity was determined by reading the fluorescence in a FLUOstar Galaxy reader (BMG LabTechnologies) using 485 nm filter for excitation and 520 nm for emission, recording signal before and after M3 activation with 10 nM acetylcholine. Fluorescence measurements were normalized to acetylcholine maximum fluorescence signal in vehicle treated cells. Atropine (100 nM) was used as positive control for inhibition. Inhibition values of M3 activity were calculated as percentages by considering maximum fluorescence corresponding to acetylcholine-M3 activation and minimum as non-stimulated cells. Table D details inhibition values of M3 activity inhibition obtained for the peptides of invention.

For assay [2], the target named is T1, human muscarinic receptor M3. Put plainly: Dose-response inhibitory effect on M3 activity (IC50). The procedure:
as §1
Characterization of Seq. ID No. 1, 3-8 peptides efficiency was obtained by calculating half maximal inhibitory concentration (IC50). For this purpose, experimental procedure regarding cell culture and fluorescent calcium probe assay was followed as described on Example 2. Peptides were assessed at concentrations between 0.1 and 100 μM and incubated for 1 hour together with Fluo-4 NW probe. Afterwards, M3 activity was determined by reading the fluorescence in a FLUOstar Galaxy reader (BMG LabTechnologies) using 485 nm filter for excitation and 520 nm for emission, recording signal before and after M3 activation with acetylcholine. Fluorescence measurements were standardized with regard to the maximum fluorescence signal detected with acetylcholine stimulation in vehicle treated cells. Inhibition values of M3 activity were calculated as percentages by considering maximum fluorescence corresponding to acetylcholine-M3 activation and minimum as non-stimulated cells. Percentage inhibition data was fitted to a sigmoidal curve to obtain IC50. Table F details inhibition values for IC50

Assay [3] shares this target. The assay can be described thus: Time-dependent inhibition of M3 activity, Fluo-4 NW calcium fluorescence. As to conditions: peptide 50 μM, read-out: % Inhibition hM3 receptor activity. The procedure: Peptides of invention were designed to target the intracellular region of M3. Therefore, minimum time required to detect inhibitory effect on M3 activity was evaluated. For this purpose, inhibitory effect of peptides Seq. […] Epithelial stable cell line constitutively expressing human muscarinic receptor M3 was used to assess peptides activity. Cells were seeded in 96-well plates at 50% cell confluence in 100 μL of complete Ham's F-12 medium. After 24 hours, medium was removed and cells were incubated with 90 μL/well of Fluo-4 NW (Invitrogen) fluorescent calcium probe assay buffer containing probenecid, following manufacturer's instructions at 37° C. in a CO2 incubator. Peptides (50 μM), vehicle and atropine were incubated either with the probe (1 hour pre-incubation) or during fluorescence reading (direct effect). Afterwards, M3 activity was recorded for 20 cycles and direct effect peptides were added on cycle 3 after baseline assessment. Acetylcholine was added on cycle 13. Therefore, direct effect of peptides was monitored for 25 minutes. Inhibition values of M3 activity were calculated as percentages by considering maximum fluorescence corresponding to vehicle or non-treated cells acetylcholine-M3 activation and minimum as non-stimulated cells. Table E details inhibition values of M3 activity inhibition obtained for the peptides of invention.

The mark [4] stands for this setting: 25 min, 25 minutes (direct effect).
Where [5] appears, read: 60 minutes (1 hour pre-incubation).

As for `CCCCCCCCCCCCCCCC(=O)N[C@@H](Cc1c[nH]c2ccccc12)C(=O)N[C@@H](CCSC)C(=O)N[C@@H](CCCNC(=N)N)C(=O)N[C@@H](CC(C)C)C(N)=O` [Seq. ID No. 1 Palmitoyl] (Palmitoyl-WMRL-NH2), the inhibition at 10 µM in assay [1] (peptide 10 μM) is 15.4%. Further, the inhibition at 50 µM in assay [1] (peptide 50 μM) came out at 70.9%; in assay [3] (setting [4]), 25.1%; in assay [3] (setting [5]), 69.5%. The inhibition at 100 µM in assay [1] (peptide 100 μM) stood at 95.6%. Besides, half-maximal inhibition in assay [2] (IC50) required 38.3 µM.

`CCCCCCCCCCCCCCCC(=O)N[C@@H](Cc1c[nH]c2ccccc12)C(=O)N[C@@H](CCSC)C(=O)N[C@@H](CCCNC(=N)N)C(=O)N[C@@H](CC(C)C)C(=O)N[C@@H](CCCCN)C(=O)N[C@@H](C)C(N)=O` [Seq. ID No. 3 Palmitoyl] (Palmitoyl-WMRLKA-NH2): the inhibition at 10 µM in assay [1] (peptide 10 μM) came out at 41%. Also, the inhibition at 50 µM in assay [1] (peptide 50 μM) worked out at 73.7%; in assay [3] (setting [4]) it was 16.4%; in assay [3] (setting [5]) it was 73%. The inhibition at 100 µM in assay [1] (peptide 100 μM) was 75.7%. Also, the half-inhibitory concentration (IC50) in assay [2] came to 12.7 µM.

Turning to `CCCCCCCCCCCCCCCC(=O)N[C@@H](Cc1c[nH]c2ccccc12)C(=O)N[C@@H](CCSC)C(=O)N[C@@H](CC(N)=O)C(=O)N[C@@H](CC(C)C)C(=O)N[C@@H](CCCCN)C(=O)N[C@H](C(N)=O)[C@@H](C)O` [Seq. ID No. 4 Palmitoyl] (Palmitoyl-WMNLKT-NH2), in assay [1] (peptide 10 μM), the inhibition at 10 µM is 35.3%. The inhibition at 50 µM in assay [1] (peptide 50 μM) is 59.6%; in assay [3] (setting [4]), 11.5%; in assay [3] (setting [5]), 69.1%. The inhibition at 100 µM in assay [1] (peptide 100 μM) amounted to 60.6%. The same compound gave an IC50 in assay [2] of 8 µM.

Take `CCCCCCCCCCCCCCCC(=O)N[C@@H](Cc1c[nH]c2ccccc12)C(=O)N[C@@H](CCSC)C(=O)N[C@@H](Cc1ccccc1)C(=O)N[C@@H](CC(C)C)C(=O)N[C@@H](CCCCN)C(N)=O` [Seq. ID No. 5 Palmitoyl] (Palmitoyl-WMFLK-NH2): the inhibition at 10 µM in assay [1] (peptide 10 μM) came to 0%. For the same compound, the inhibition at 50 µM is 45.7% in assay [1] (peptide 50 μM), -7.1% in assay [3] (setting [4]) and 84.4% in assay [3] (setting [5]). Moreover, the inhibition at 100 µM in assay [1] (peptide 100 μM) was 80.6%. In assay [2], half-maximal inhibition (IC50) was put at 61.1 µM.

Consider `CCCCCCCCCCCCCC(=O)N[C@@H](CCCNC(=N)N)C(=O)N[C@@H](CCSC)C(=O)N[C@@H](Cc1ccc(O)cc1)C(=O)N[C@@H](CCCCN)C(=O)N[C@@H](CCSC)C(=O)N[C@@H](CCSC)C(=O)N[C@@H](C)C(=O)NCC(=O)N[C@@H](CCSC)C(=O)N[C@@H](Cc1ccc(O)cc1)C(=O)N[C@@H](CC(C)C)C(=O)N[C@@H](CCCNC(=N)N)C(N)=O` [Seq. ID No. 6 Myristoyl] (Myristoyl-RMYKMMAGMYLR-NH2), for which, in assay [1] (peptide 10 μM), the inhibition at 10 µM was determined as 14.8%. Further, the inhibition at 50 µM in assay [1] (peptide 50 μM) is 56.4%; in assay [3] (setting [4]) it was -20.2%; in assay [3] (setting [5]), 54.7%. The inhibition at 100 µM in assay [1] (peptide 100 μM) amounted to 92.1%. The compound also had an IC50 in assay [2] of 55.2 µM.

Take `CCCCCCCCCCCCCC(=O)N[C@@H](CCCNC(=N)N)C(=O)N[C@H](C(=O)N[C@@H](CCSC)C(=O)N[C@@H](Cc1ccc(O)cc1)C(=O)N[C@@H](CCCCN)C(=O)N[C@@H](CCSC)C(=O)N[C@@H](CC(N)=O)C(=O)N[C@@H](CCCCN)C(=O)N[C@@H](CCCNC(=N)N)C(=O)N[C@@H](CC(=O)O)C(=O)N[C@@H](Cc1ccc(O)cc1)C(N)=O)C(C)C` [Seq. ID No. 7 Myristoyl] (Myristoyl-RVMYKMNKRDY-NH2): the inhibition at 10 µM in assay [1] (peptide 10 μM) stood at 15.9%. Further, the figures for the inhibition at 50 µM in assay [1] (peptide 50 μM), in assay [3] (setting [4]) and in assay [3] (setting [5]) were 54.8%, 16.4% and 82.7%, respectively. Moreover, the inhibition at 100 µM in assay [1] (peptide 100 μM) stood at 92.4%. Besides, in assay [2], the half-inhibitory concentration (IC50) was found to be 55 µM.

For the compound `CCCCCCCCCCCCCC(=O)N[C@@H](CCCNC(=N)N)C(=O)N[C@H](C(=O)N[C@@H](CCSC)C(=O)N[C@@H](Cc1ccccc1)C(=O)N[C@@H](CCCCN)C(=O)N[C@@H](CCSC)C(=O)N[C@@H](Cc1ccccc1)C(=O)N[C@@H](CCCCN)C(=O)N[C@@H](CCCNC(=N)N)C(=O)N[C@@H](CC(=O)O)C(=O)N[C@@H](Cc1ccc(O)cc1)C(N)=O)C(C)C` [Seq. ID No. 8 Myristoyl] (Myristoyl-RVMFKMFKRDY-NH2), the inhibition at 10 µM in assay [1] (peptide 10 μM) is 42.5%. The inhibition at 50 µM worked out at 71.7% in assay [1] (peptide 50 μM), 6.1% in assay [3] (setting [4]) and 87.1% in assay [3] (setting [5]). In addition, the inhibition at 100 µM in assay [1] (peptide 100 μM) amounted to 93.8%. Further, the IC50 in assay [2] is 9.8 µM.

Regarding “Seq. ID No. 2 Acetyl: Nt-acetyl WMRLK, C terminus amidated (Ac-WMRLK-NH2)”, the “% M3 inhibition” value in assay [1] (peptide 10 μM) amounted to 0.0%; in assay [1] (peptide 50 μM) it was 9.1%; in assay [1] (peptide 100 μM) it was 24.6%.

With “Seq. ID No. 5 Acetyl: Nt-acetyl WMFLK, C terminus amidated (Ac-WMFLK-NH2)”, the “% M3 inhibition” value turned out to be 3.9% in assay [1] (peptide 10 μM), 6.2% in assay [1] (peptide 50 μM) and 15.1% in assay [1] (peptide 100 μM).

For “Seq. ID No. 6 Acetyl: Nt-acetyl RMYKMMAGMYLR, C terminus amidated (Ac-RMYKMMAGMYLR-NH2)”, the entries for the “% M3 inhibition” value in assay [1] (peptide 10 μM), in assay [1] (peptide 50 μM) and in assay [1] (peptide 100 μM) were 3.0%, 26.4% and 32.5%, respectively.

For the compound “Seq. ID No. 6 Palmitoyl: Nt-palmitoyl RMYKMMAGMYLR, C terminus amidated (Palmitoyl-RMYKMMAGMYLR-NH2)”, the “% M3 inhibition” value in assay [1] (peptide 10 μM) was found to be 34.5%.

In the case of “Seq. ID No. 7 Acetyl: Nt-acetyl RVMYKMNKRDY, C terminus amidated (Ac-RVMYKMNKRDY-NH2)”, the figures for the “% M3 inhibition” value in assay [1] (peptide 10 μM), in assay [1] (peptide 50 μM) and in assay [1] (peptide 100 μM) were 8.6%, 8.3% and 20.6%, respectively.

In the case of “Seq. ID No. 7 Palmitoyl: Nt-palmitoyl RVMYKMNKRDY, C terminus amidated (Palmitoyl-RVMYKMNKRDY-NH2)”, the “% M3 inhibition” value in assay [1] (peptide 10 μM) worked out at 47.4%.

Regarding “Seq. ID No. 8 Acetyl: Nt-acetyl RVMFKMFKRDY, C terminus amidated (Ac-RVMFKMFKRDY-NH2)”, the figures for the “% M3 inhibition” value in assay [1] (peptide 10 μM), in assay [1] (peptide 50 μM) and in assay [1] (peptide 100 μM) were 21.5%, 12.4% and 26.1%, respectively.

Consider “Seq. ID No. 8 Palmitoyl: Nt-palmitoyl RVMFKMFKRDY, C terminus amidated (Palmitoyl-RVMFKMFKRDY-NH2)”, for which the “% M3 inhibition” value in assay [1] (peptide 10 μM) is reported as 32.7%.
